Experimental data reported in ChEMBL document CHEMBL2321831, “Design, synthesis, and biological evaluations of novel 7-[7-amino-7-methyl-5-azaspiro[2.4]heptan-5-yl]-8-methoxyquinolines with potent antibacterial activity against respiratory pathogens” (J Med Chem, 2013).

Columns and labels:
[1] = system: Chlamydia pneumoniae; assay: Antibacterial activity against Chlamydophila pneumoniae CM-1 after 18 hrs by microbroth dilution method; assay type: functional; conditions: CM-1, 18 h
[2] = molecular target: T1, hERG (KCNH2) (Homo sapiens, UniProt Q12809); assay: Inhibition of human ERG expressed in CHOK1 cells at 30 uM; assay type: cell-based; conditions: CHO-K1 cells expressing hERG
[3] = system: Streptococcus pyogenes; assay: Antibacterial activity against Streptococcus pyogenes G-36 after 18 hrs by microbroth dilution method; assay type: functional; conditions: G-36, 18 h
[4] = system: Streptococcus pneumoniae; assay: Antibacterial activity against penicillin-susceptible Streptococcus pneumoniae J24 after 18 hrs by microbroth dilution method; assay type: functional; conditions: J24, 18 h
[5] = AUC (0 to 8 hrs) in Crj:CD rat lung at 5 mg/kg, po; assay type: ADME, organism-based; design: time < 8 hr, dose 5 mg/kg, route oral
[6] = Primary phase half life in cynomolgus monkey serum at 10 mg/kg, iv; assay type: ADME, organism-based, Macaca fascicularis; design: dose 10 mg/kg, route intravenous; conditions: read-out: alphat1/2 (converted)
[7] = Cmax in cynomolgus monkey serum at 5 mg/kg, po; assay type: ADME, organism-based, Macaca fascicularis; design: dose 5 mg/kg, route oral
[8] = system: Moraxella catarrhalis; assay: Antibacterial activity against Moraxella catarrhalis ATCC 25238 after 18 hrs by microbroth dilution method; assay type: functional; conditions: ATCC 25238, 18 h
[9] = system: Enterococcus faecalis; assay: Antibacterial activity against Enterococcus faecalis ATCC 19433 after 18 hrs by microbroth dilution method; assay type: functional; conditions: ATCC 19433, 18 h
[10] = molecular target: T1, hERG (KCNH2); assay: Inhibition of human ERG expressed in CHOK1 cells at 100 uM; assay type: cell-based; conditions: CHO-K1 cells expressing hERG
[11] = Drug recovery in cynomolgus monkey urine at 10 mg/kg, iv after 24 hrs; assay type: ADME, organism-based, Macaca fascicularis; design: dose 10 mg/kg, route intravenous; conditions: read-out: Drug recovery
[12] = Drug uptake in cynomolgus monkey serum at 10 mg/kg, iv after 5 mins; assay type: ADME, organism-based, Macaca fascicularis; design: dose 10 mg/kg, route intravenous; conditions: read-out: Drug uptake
[13] = AUC (0 to 8 hrs) in Crj:CD rat liver at 5 mg/kg, po; assay type: ADME, organism-based; design: time < 8 hr, dose 5 mg/kg, route oral
[14] = system: Klebsiella pneumoniae; assay: Antibacterial activity against Klebsiella pneumoniae TYPE1 after 18 hrs by microbroth dilution method; assay type: functional; conditions: TYPE1, 18 h
[15] = system: Staphylococcus epidermidis; assay: Antibacterial activity against Staphylococcus epidermidis 56500 after 18 hrs by microbroth dilution method; assay type: functional; conditions: Staphylococcus epidermidis, 56500, 18 h
[16] = Cmax in Crj:CD rat serum at 5 mg/kg, po; assay type: ADME, organism-based; design: dose 5 mg/kg, route oral
[17] = system: Mycoplasmoides pneumoniae; assay: Antibacterial activity against Mycoplasma pneumoniae ATCC 29085 after 18 hrs by microbroth dilution method; assay type: functional; conditions: ATCC 29085, 18 h
[18] = system: Bacillus subtilis; assay: Antibacterial activity against Bacillus subtilis IID 685 after 18 hrs by microbroth dilution method; assay type: functional; conditions: IID 685, 18 h
[19] = system: Staphylococcus aureus; assay: Antibacterial activity against levofloxacin-resistant and methicillin-resistant Staphylococcus aureus 870307 after 18 hrs by microbroth dilution method; assay type: functional; conditions: Staphylococcus aureus, 870307, 18 h
[20] = system: Haemophilus influenzae; assay: Antibacterial activity against Haemophilus influenzae ATCC 49247 after 18 hrs by microbroth dilution method; assay type: functional; conditions: ATCC 49247, 18 h
[21] = AUC (0 to 24 hrs) in cynomolgus monkey serum at 5 mg/kg, po; assay type: ADME, organism-based, Macaca fascicularis, Plasma; design: time < 24 hr, dose 5 mg/kg, route oral
[22] = system: Mycoplasmoides pneumoniae; assay: Antibacterial activity against Mycoplasma pneumoniae 18-1 after 18 hrs by microbroth dilution method; assay type: functional; conditions: 18-1, 18 h
[23] = system: Chlamydia pneumoniae; assay: Antibacterial activity against Chlamydophila pneumoniae AR39 after 18 hrs by microbroth dilution method; assay type: functional; conditions: AR39, 18 h
[24] = Drug recovery in cynomolgus monkey urine at 5 mg/kg, po after 24 hrs; assay type: ADME, organism-based, Macaca fascicularis; design: dose 5 mg/kg, route oral; conditions: read-out: Drug recovery
[25] = AUC (0 to 8 hrs) in Crj:CD rat serum at 5 mg/kg, po; assay type: ADME, organism-based; design: time < 8 hr, dose 5 mg/kg, route oral
[26] = AUC (0 to 8 hrs) in Crj:CD rat kidney at 5 mg/kg, po; assay type: ADME, organism-based; design: time < 8 hr, dose 5 mg/kg, route oral
[27] = system: Streptococcus pneumoniae; assay: Antibacterial activity against quinolone, penicillin-resistant Streptococcus pneumoniae 104835 after 18 hrs by microbroth dilution method; assay type: functional; conditions: Streptococcus pneumoniae, 104835, 18 h
[28] = Plasma protein binding in human at 10 ug/mL by ultrafiltration method; assay type: ADME, cell-free; conditions: read-out: PPB (converted)
[29] = system: Staphylococcus aureus; assay: Antibacterial activity against Staphylococcus aureus FDA 209-P after 18 hrs by microbroth dilution method; assay type: functional
[30] = system: Streptococcus pneumoniae; assay: Antibacterial activity against levofloxacin-intermediate and levofloxacin-resistant Streptococcus pneumoniae after 18 hrs by microbroth dilution method; assay type: functional
[31] = system: Pseudomonas aeruginosa; assay: Antibacterial activity against Pseudomonas aeruginosa PAO1 after 18 hrs by microbroth dilution method; assay type: functional; conditions: PAO1, 18 h
[32] = Half life in cynomolgus monkey serum at 5 mg/kg, po; assay type: ADME, organism-based, Macaca fascicularis; design: dose 5 mg/kg, route oral
[33] = AUC (0 to 8 hrs) in cynomolgus monkey serum at 10 mg/kg, iv; assay type: ADME, organism-based, Macaca fascicularis, Plasma; design: time < 8 hr, dose 10 mg/kg, route intravenous
[34] = Drug recovery in Crj:CD rat urine at 5 mg/kg, po after 24 hrs; assay type: ADME, organism-based; design: dose 5 mg/kg, route oral; conditions: read-out: Drug recovery

T1 sequence (Q12809 whole entry): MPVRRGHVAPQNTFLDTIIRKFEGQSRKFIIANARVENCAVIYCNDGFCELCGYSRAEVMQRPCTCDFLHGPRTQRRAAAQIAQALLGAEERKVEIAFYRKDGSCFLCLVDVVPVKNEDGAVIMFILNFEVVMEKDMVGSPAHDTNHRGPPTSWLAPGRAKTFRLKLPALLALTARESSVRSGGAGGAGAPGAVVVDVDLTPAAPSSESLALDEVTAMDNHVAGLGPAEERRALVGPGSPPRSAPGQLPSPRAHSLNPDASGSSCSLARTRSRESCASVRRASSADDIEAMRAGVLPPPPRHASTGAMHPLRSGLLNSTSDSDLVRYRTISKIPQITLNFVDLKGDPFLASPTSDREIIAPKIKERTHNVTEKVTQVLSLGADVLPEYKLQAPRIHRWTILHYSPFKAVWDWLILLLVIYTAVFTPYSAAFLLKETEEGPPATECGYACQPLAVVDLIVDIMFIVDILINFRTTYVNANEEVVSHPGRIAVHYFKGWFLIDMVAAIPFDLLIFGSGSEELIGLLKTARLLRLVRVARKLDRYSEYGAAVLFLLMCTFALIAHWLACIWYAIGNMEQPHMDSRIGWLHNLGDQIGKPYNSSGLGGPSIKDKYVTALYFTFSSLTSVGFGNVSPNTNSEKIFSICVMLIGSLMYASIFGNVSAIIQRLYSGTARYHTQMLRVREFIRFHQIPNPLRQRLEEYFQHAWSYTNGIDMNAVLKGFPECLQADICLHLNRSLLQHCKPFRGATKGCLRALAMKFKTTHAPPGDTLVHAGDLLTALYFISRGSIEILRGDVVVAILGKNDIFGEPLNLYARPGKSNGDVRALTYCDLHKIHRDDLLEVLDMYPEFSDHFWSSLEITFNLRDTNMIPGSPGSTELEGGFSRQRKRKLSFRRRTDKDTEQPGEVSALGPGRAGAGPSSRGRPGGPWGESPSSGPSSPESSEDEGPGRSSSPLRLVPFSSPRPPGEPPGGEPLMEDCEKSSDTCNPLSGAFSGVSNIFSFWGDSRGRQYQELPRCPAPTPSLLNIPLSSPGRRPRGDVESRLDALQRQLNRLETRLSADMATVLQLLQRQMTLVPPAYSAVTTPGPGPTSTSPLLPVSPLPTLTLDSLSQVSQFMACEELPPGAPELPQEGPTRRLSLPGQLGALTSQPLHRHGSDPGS

Structure (SMILES): C[C@H]1COc2c(N3CCN(C)CC3)c(F)cc3c(=O)c(C(=O)O)cn1c23.C[C@H]1COc2c(N3CCN(C)CC3)c(F)cc3c(=O)c(C(=O)O)cn1c23.O [LEVOFLOXACIN]
- MIC [1]: 0.5 µg/mL
- inhibition at 30 µM [2]: -0.9%
- MIC [3]: 0.78 µg/mL
- MIC [4]: 0.78 µg/mL
- AUC(0-t) at 8 h [5]: 5570 ng·h/mL
- half-life [6]: 3.2 h
- Cmax [7]: 1920 ng/mL
- MIC [8]: 0.025 µg/mL
- MIC [9]: 0.78 µg/mL
- inhibition at 100 µM [10]: 4.2%
- dose excreted at 24 h [11]: 80.7%
- concentration at 5 min [12]: 4170 ng/mL
- AUC(0-t) at 8 h [13]: 16400 ng·h/mL
- MIC [14]: 0.05 µg/mL
- MIC [15]: 0.39 µg/mL
- Cmax [16]: 1470 ng/mL
- MIC [17]: 1 µg/mL
- MIC [18]: 1.56 µg/mL
- MIC [19]: > 6.25 µg/mL
- MIC [20]: 0.012 µg/mL
- AUC(0-t) at 24 h [21]: 15200 ng·h/mL
- MIC [22]: 2 µg/mL
- MIC [23]: 0.5 µg/mL
- dose excreted at 24 h [24]: 73.9%
- AUC(0-t) at 8 h [25]: 3410 ng·h/mL
- AUC(0-t) at 8 h [26]: 19300 ng·h/mL
- MIC [27]: > 6.25 µg/mL
- fraction unbound at 10 ug/mL [28]: 0.678
- MIC [29]: 0.1 µg/mL
- MIC50 [30]: 8 µg/mL
- MIC80 [30]: 16 µg/mL
- MIC90 [30]: 16 µg/mL
- MIC [31]: 0.39 µg/mL
- half-life [32]: 3.5 h
- AUC(0-t) at 8 h [33]: 15500 ng·h/mL
- dose excreted at 24 h [34]: 80%
